Test results published in US8822440B2, “Inhibiting cyclin D polypeptides” (Mayo Foundation for Medical Education and Research, priority 2006, dated 2014).
Entries after “also recorded” stand apart in the source; their conditions may differ.

Key:
HMCL = assay: Annexin V / propidium iodide flow cytometry of HMCL; assay type: cell-based, human
Procedure: Flow cytometry. HMCL were treated as indicated and then washed in cold phosphate-buffered saline (PBS) and resuspended in buffer containing AnnexinV-FITC and propidium iodide (BD Biosciences, San Jose, Calif.) for 15 minutes at room temperature. Cells (10^5) were subsequently diluted and analyzed immediately by flow cytometry (FACScan, BD Biosciences, San Jose, Calif.) using CellQuest software. Patient bone marrow specimens were prepared and analyzed in a similar fashion using AnnexinV-FITC and anti-CD138-PE (BD Biosciences, San Jose, Calif.).

8226 tumors = assay: 8226 myeloma xenograft in nude mice; assay type: in vivo
Procedure: FIG. 14. Kinetin riboside induces tumor growth arrest in My5 and 8226 myeloma tumor xenografts. (A) Matched pairs of nude mice bearing My5 tumors were treated intra-peritoneally (i.p.) with vehicle control (□) or with kinetin riboside (▪) at escalating dose-density from 100 mg/kg once daily to 85mg/kg 5×/daily, administered 5 days per week, commencing after mean tumor volume reached 135mm^3. Mean tumor volumes±SEM are shown from the time of xenografting (n=4/group). […]
Female nude X-linked immune-deficient (BNX) mice purchased from NCI-Frederick were used for in vivo studies. Animals had access to food and water ad libitum and were handled in accordance with animal care and use guidelines. Eight-week-old mice were inoculated with My5 or 8226 (2×10^7) MM cells subcutaneously (s.c.) in the right flank. Kinetin riboside (pre-dissolved in DMSO at 500 mg/mL and stored at −20° C.) was formulated daily by dropwise dissolution to 3.7 mg/mL in pre-warmed (37° C.) 0.9% saline, 1% β2-hydroxypropylcyclodextrin (Sigma) solution and was administered 1×-5× daily at 85 mg/kg/dose. The first dose daily was given intraperitoneally and remaining doses were given s.c. with increasing dosing intervals (30, 60, 120, 180 minutes). Tumor volumes were measured using vernier calipers and calculated with the formula L×W×H×2/3. P-values were calculated by paired t-test (JMP 6.0, SAS; Cary, N.C.).

CCND2 promoter = assay: CCND2 promoter-luciferase transactivation assay in NIH3T3 cells with or without c-maf; assay type: cell-based, mouse
Procedure: Using this assay, Lopac (n=1280), Prestwick (n=1120), and Spectrum (n=2000) libraries of drugs and natural compounds were screened. In a parallel MTS assay, the effect of each compound on 3T3 viability was determined, allowing exclusion of compounds that caused secondary suppression of CCND2 due to non-specific cytotoxicity. […] These included monensin, patulin, β-lapachone, camptothecin, dihydrogambogic acid, gentian violet, thapsigargin, brefeldin A, pristimerin, and kinetin riboside.
Full-length c-maf cDNA was subcloned into an IRES-GFP MIEV retroviral vector and introduced into NIH3T3 cells by infection. Stable clones expressing GFP and c-maf were selected by flow cytometry and immunoblotting, respectively. The promoter of human cyclin D2 (−894 to −4; Brooks et al., J. Biol. Chem., 271, 9090-9 (1996)), containing c-maf responsive element sequence (MARE), was cloned from DNA from HeLa cells and inserted into the pGLbasic firefly luciferase vector (Promega, Madison, Wis.) immediately upstream of the luciferase gene. This construct was co-transfected with pcDNA3 (containing a neomycin resistance gene) into both NIH3T3 wild type cells and NIH3T3 cells stably over-expressing c-maf-IRES-GFP. Cells stably expressing c-maf, GFP, and luciferase were selected.
NIH3T3 cells stably expressing c-maf and the CCND2 promoter driving luciferase (13,000 cells per well) were plated in 96-well plates by a Biomek FX liquid handler (Beckman, Fullerton, Calif.). After the cells had adhered, they were treated with aliquots of molecules from LOPAC (Sigma, St. Louis, Mo.), Prestwick (Prestwick Chemical Inc, Illkirch, France) or Spectrum (Microsource Discovery Systems, Gaylordsville, Conn.) libraries of off-patent drugs and chemicals at a final concentration of ˜5 μM and <0.1% DMSO. Cells were incubated with compounds at 37° C. for 16 hours.
Luciferase assay. Luciferase activity was assessed according to the manufacturer's instructions (Promega, Madison, Wis.). Briefly, the cell culture medium was removed using an EMBLA plate washer (Molecular Devices, X) and Glo Lysis buffer (Promega) was added by robot. After a 10-minute incubation, an equal volume of Bright-Glo Luciferase substrate (Promega) was added, and luminescence signal was detected with a 96-well Luminoskan luminescence plate reader (Thermo Labsystem, Waltham, Mass.) using a 5 second integration.
Studies of kinetin riboside using 3T3-D2-luc cells. To examine CCND2 suppression induced by kinetin riboside, the reporter cells were exposed to kinetin riboside in combination with other drugs (all purchased from Sigma, St. Loius, Mo.) that influence CCND2 transcription or inhibit nucleoside transport or phosphorylation. NIH3T3 cells expressing the CCND2 promoter driving luciferase were incubated with kinetin riboside or vehicle control +/− forskolin, 4-(3-butoxy-4-methoxybenzyl)imidazolidin-2-one (BMBI), cantharadin, S-(4-Nitrobenzyl)-6-thioinosine (NBTI), or A-134974, as specified at 5 μM concentration for 16 hours at 37° C. […] Forskolin is a cell-permeable diterpenoid that activates adenylate cyclase resulting in increased cAMP concentration. BMBI (Sigma B8279) is an inhibitor of cAMP phosphodiesterase that also causes accumulation of cAMP. Cantharadin (C7632) is an inhibitor of protein phosphatase 2A and, from the library screen, mediates induction of CCND2. NBTI (Sigma N2255) is a potent adenosine uptake inhibitor, and A-134974 (Sigma A2846) is a selective inhibitor of adenosine kinase.
In an optimized automated assay, NIH3T3 cells over-expressing c-maf and the human cyclin D2 promoter driving luc were plated in 96-well plates by robot and following adhesion were treated for 16 hours with compounds at a final concentration of ˜5 μM and <0.1% DMSO. As a control, cells were treated with buffer alone. […] Thus, each compound from the library was tested in at least two assays—luciferase for CCND2 activity and MTS for viability. The coefficient of variance (CV) of the assay was <10%.

Q: With `OC[C@H]1O[C@@H](n2cnc3c(NCc4ccco4)ncnc32)[C@H](O)[C@@H]1O` [kinetin riboside, N6-Furfuryladenosine] as the compound, how does the “time to Annexin-V surface binding and loss of CD138 expression” value (HMCL) read?
A: The value was 24 to 96 h.

Q: And the “response of H929 cells” value (HMCL; H929, 10 μM)?
A: Its value is “apoptosis”.

Q: And the “response of U266 cells” value (HMCL; U266, 10 μM, 96 hours)?
A: Its value is “growth inhibition”.

Q: What about the “effect on 8226 tumors compared to vehicle-treated mice” value (8226 tumors; 85 mg/kg 4× daily upfront, p<0.01) of the same compound?
A: The value was “Statistically significant tumor growth inhibition”.

Q: And the “effect on 8226 tumor growth” value (8226 tumors; once daily, up to 100 mg/kg/day)?
A: Its value is “no effect”.

Q: What about the “time course of suppression of CCND2-driven luciferase” value (CCND2 promoter; NIH3T3) of the same compound?
A: The value was “rapid suppression of CCND2 transactivation”.

Q: And the “suppression of CCND2 promoter in absence or presence of c-maf” value (CCND2 promoter; NIH3T3 CCND2-luc with or without c-maf)?
A: Its value is “c-maf independent specific suppression of the CCND2 promoter”.

Q: What about the “effect on BMBI-induced CCND2 transactivation” value (CCND2 promoter; co-incubation, 5 μM, 16 hours) of the same compound?
A: The value was “effectively blocked”.

Q: What about the “effect on Forskolin-induced CCND2 transactivation” value (CCND2 promoter; co-incubation, 5 μM, 16 hours) of the same compound?
A: Its value is “blocked”.

Q: And the “effect on cantharadin-induced CCND2 transactivation” value (CCND2 promoter; co-incubation, 5 μM, 16 hours)?
A: Its value is “abolished”.

Q: And the “identified as putative inhibitor of CCND2 transactivation (screen hit)” value (CCND2 promoter; ~5 μM, 16 hours, hit = 50% or more reduction in luciferase relative to cell viability)?
A: Its value is “putative CCND2 inhibitors; also recorded: putative suppressors of CCND2”.
